Test results: the supplement of paper PMC11061612

What was measured:
[1] = tested on: Becker (Low Grade Glioma); assay: Bliss excess, mean over the matrix (fraction); higher = more synergy
In short: (§1)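 Bliss excess equals the observed combination effect minus the expected value EA + EB − EA·EB, where EA and EB are the effects of each agent alone. Combination Emax is the second-highest inhibition within the matrix. Inhibition was scaled from CellTiter-Glo 2.0 luminescence, with 0 set by vehicle wells and 1 by blank wells, after 72 hours of two-drug dosing of cells plated in 1536-well plates.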

CHL-1 (Melanoma) [2] = assay: as above
In short: as §1

[3] = tested on: CML-T1 (Chronic Myelogenous Leukemia); assay: as above
In short: as §1

[4] = tested on: COLO-684 (Endometrial Carcinoma); assay: as above
In short: as §1

[5] = tested on: EB-3 (Burkitt's Lymphoma); assay: as above
In short: as §1

[6] = tested on: FLO-1 (Esophageal Adenocarcinoma); assay: as above
In short: as §1

[7] = tested on: HCC-44 (Lung Adenocarcinoma); assay: as above
In short: as §1

KYM-1 (Rhabdomyosarcoma) [8] = assay: as above
In short: as §1

[9] = tested on: KYSE-70 (Esophageal Squamous Cell Carcinoma); assay: as above
In short: as §1

[10] = tested on: LAMA-84 (Chronic Myelogenous Leukemia); assay: as above
In short: as §1

[11] = tested on: LOUCY (T-Lymphoblastic Leukemia); assay: as above
In short: as §1

[12] = tested on: NCI-H1755 (Lung Adenocarcinoma); assay: as above
In short: as §1

[13] = tested on: NCI-H810 (Non-Small Cell Lung Carcinoma); assay: as above
In short: as §1

[14] = tested on: NKM-1 (Acute Myeloid Leukemia); assay: as above
In short: as §1

[15] = tested on: OV-90 (Ovarian Carcinoma); assay: as above
In short: as §1

[16] = tested on: PANC-02-03 (Pancreatic Carcinoma); assay: as above
In short: as §1

[17] = tested on: PC-14 (Lung Adenocarcinoma); assay: as above
In short: as §1

[18] = tested on: RMG-I (Ovarian Carcinoma); assay: as above
In short: as §1

[19] = tested on: SK-MM-2 (Plasma Cell Myeloma); assay: as above
In short: as §1

[20] = tested on: SW684 (Other Solid Carcinomas); assay: as above
In short: as §1

[21] = tested on: Becker (Low Grade Glioma); assay: combination Emax (second highest fraction inhibited in the dose matrix, 72 h); higher = more inhibition; extreme values may be limits of the assay
In short: as §1

CHL-1 (Melanoma) [22] = assay: as above
In short: as §1

[23] = tested on: CML-T1 (Chronic Myelogenous Leukemia); assay: as above
In short: as §1

[24] = tested on: COLO-684 (Endometrial Carcinoma); assay: as above
In short: as §1

[25] = tested on: EB-3 (Burkitt's Lymphoma); assay: as above
In short: as §1

[26] = tested on: FLO-1 (Esophageal Adenocarcinoma); assay: as above
In short: as §1

[27] = tested on: HCC-44 (Lung Adenocarcinoma); assay: as above
In short: as §1

KYM-1 (Rhabdomyosarcoma) [28] = assay: as above
In short: as §1

[29] = tested on: KYSE-70 (Esophageal Squamous Cell Carcinoma); assay: as above
In short: as §1

[30] = tested on: LAMA-84 (Chronic Myelogenous Leukemia); assay: as above
In short: as §1

[31] = tested on: LOUCY (T-Lymphoblastic Leukemia); assay: as above
In short: as §1

[32] = tested on: NCI-H1755 (Lung Adenocarcinoma); assay: as above
In short: as §1

[33] = tested on: NCI-H810 (Non-Small Cell Lung Carcinoma); assay: as above
In short: as §1

[34] = tested on: NKM-1 (Acute Myeloid Leukemia); assay: as above
In short: as §1

[35] = tested on: OV-90 (Ovarian Carcinoma); assay: as above
In short: as §1

[36] = tested on: PANC-02-03 (Pancreatic Carcinoma); assay: as above
In short: as §1

[37] = tested on: PC-14 (Lung Adenocarcinoma); assay: as above
In short: as §1

[38] = tested on: RMG-I (Ovarian Carcinoma); assay: as above
In short: as §1

[39] = tested on: SK-MM-2 (Plasma Cell Myeloma); assay: as above
In short: as §1

[40] = tested on: SW684 (Other Solid Carcinomas); assay: as above
In short: as §1

SMILES	Bliss excess [1]	Bliss excess (CHL-1 (Melanoma) [2])	Bliss excess [3]	Bliss excess [4]	Bliss excess [5]	Bliss excess [6]	Bliss excess [7]	Bliss excess (KYM-1 (Rhabdomyosarcoma) [8])	Bliss excess [9]	Bliss excess [10]	Bliss excess [11]	Bliss excess [12]	Bliss excess [13]	Bliss excess [14]	Bliss excess [15]	Bliss excess [16]	Bliss excess [17]	Bliss excess [18]	Bliss excess [19]	Bliss excess [20]	combination Emax [21]	combination Emax (CHL-1 (Melanoma) [22])	combination Emax [23]	combination Emax [24]	combination Emax [25]	combination Emax [26]	combination Emax [27]	combination Emax (KYM-1 (Rhabdomyosarcoma) [28])	combination Emax [29]	combination Emax [30]	combination Emax [31]	combination Emax [32]	combination Emax [33]	combination Emax [34]	combination Emax [35]	combination Emax [36]	combination Emax [37]	combination Emax [38]	combination Emax [39]	combination Emax [40]
C=CCn1c(=O)c2cnc(Nc3ccc(N4CCN(C)CC4)cc3)nc2n1-c1cccc(C(C)(C)O)n1 [AZD1775] + CCc1c2c(nc3ccc(O)cc13)-c1cc3c(c(=O)n1C2)COC(=O)[C@]3(O)CC [SN-38] (first compound max 1 µM, partner max 0.3 µM)	-0.0094	0.0518	-0.002	-0.0122	-0.0467	0.0261	0.0458	-0.0535	-0.0358	-0.0202	0.0229	0.0139	-0.0454	0.0008	-0.101	0.0042	-0.0001	-0.0848	0.0271	0.0144	0.903	0.833	1	0.906	0.884	0.897	0.935	0.958	0.599	0.993	0.995	0.827	0.634	0.997	0.537	0.706	0.929	0.524	0.794	0.493
C=CCn1c(=O)c2cnc(Nc3ccc(N4CCN(C)CC4)cc3)nc2n1-c1cccc(C(C)(C)O)n1 [AZD1775] + Nc1ccn([C@@H]2O[C@H](CO)[C@@H](O)C2(F)F)c(=O)n1 [Gemcitabine] (first compound max 1 µM, partner max 0.3 µM)	0.0271	0.0089	0.0273	-0.0674	0.0105	0.0955	0.0711	0.0009	-0.002	0.0286	0.108	0.0304	-0.0695	0.0002	-0.0166	0.0035	0.0198	-0.0608	0.0664	-0.0333	0.584	0.725	0.998	0.718	0.811	0.904	0.916	0.999	0.565	0.963	0.995	0.786	0.828	1	0.555	0.588	0.917	0.401	0.623	0.382
CN(CCO)CC[C@H](CSc1ccccc1)Nc1ccc(S(=O)(=O)NC(=O)c2ccc(N3CCC([C@@H](O)c4ccccc4-c4ccc(Cl)cc4)CC3)cc2)cc1S(=O)(=O)C(F)(F)F [AZD4320] + CC(=O)O[C@H]1C(=O)[C@@]2(C)[C@H]([C@H](OC(=O)c3ccccc3)[C@]3(O)C[C@H](OC(=O)[C@H](O)[C@@H](NC(=O)c4ccccc4)c4ccccc4)C(C)=C1C3(C)C)[C@]1(OC(C)=O)CO[C@@H]1C[C@@H]2O [Paclitaxel] (first compound max 1 µM, 7x7, partner max 3 µM)	0.0744	0.0578	-0.0236	0.0345	-0.0733	0.0005	-0.0294	0.017	0.0722	0.0001	0.0229	0.0211	0.237	0.0078	0.0935	0.0109	0.0125	0.133	0.0531	0.164	1	1	1	0.663	0.754	0.98	0.876	1	0.597	1	1	0.9	0.992	1	0.932	0.597	0.996	0.94	1	0.952
CN(CCO)CC[C@H](CSc1ccccc1)Nc1ccc(S(=O)(=O)NC(=O)c2ccc(N3CCC([C@@H](O)c4ccccc4-c4ccc(Cl)cc4)CC3)cc2)cc1S(=O)(=O)C(F)(F)F [AZD4320] + CS(=O)(=O)CCNCc1ccc(-c2ccc3ncnc(Nc4ccc(OCc5cccc(F)c5)c(Cl)c4)c3c2)o1 [Lapatinib] (first compound max 1 µM, 7x7, partner max 10 µM)	0.0497	0.0412	-0.0077	-0.0766	-0.0721	0.0298	-0.0303	0.021	-0.0022	0.0411	0.0586	0.0015	-0.0665	0.0418	-0.02	0.0082	0.0043	0.0763	0.0729	-0.0169	0.912	0.718	1	0.34	0.605	0.842	0.472	0.395	0.177	0.989	1	0.702	0.518	1	0.849	0.875	0.964	0.972	1	0.823
CN(CCO)CC[C@H](CSc1ccccc1)Nc1ccc(S(=O)(=O)NC(=O)c2ccc(N3CCC([C@@H](O)c4ccccc4-c4ccc(Cl)cc4)CC3)cc2)cc1S(=O)(=O)C(F)(F)F [AZD4320] + Nc1ccn([C@@H]2O[C@H](CO)[C@@H](O)C2(F)F)c(=O)n1 [Gemcitabine] (first compound max 1 µM, 7x7, partner max 0.3 µM)	0.0818	0.0768	-0.0189	-0.0157	0.0031	0.0443	0.0237	0.001	-0.0342	0.0346	0.0431	-0.0211	-0.0458	0.0029	0.0718	-0.071	0.0292	0.0063	0.0061	-0.0442	0.8	0.686	1	0.429	0.469	0.776	0.641	1	0.159	0.979	1	0.463	0.593	1	0.88	0.482	0.699	0.866	1	0.524
C[C@@H]1COCCN1c1cc(C2([S@](C)(=N)=O)CC2)nc(-c2ccnc3[nH]ccc23)n1 [AZD6738] + C1CC(C1)(C(=O)[O-])C(=O)[O-].N.N.[Pt+2] [Carboplatin] (first compound max 10 µM, 7x7, partner max 10 µM)	-0.0224	-0.0178	-0.031	-0.0356	-0.0876	-0.0416	-0.0585	0.0183	-0.0571	-0.0368	0.0054	-0.0571	-0.116	-0.0102	-0.0638	-0.0433	-0.0164	-0.0502	-0.0045	-0.0968	0.648	0.798	0.976	0.756	0.751	0.619	0.288	0.904	0.266	0.92	0.972	0.807	0.458	–	0.345	0.433	0.807	0.337	0.319	0.342
